# Data published in paper PMC10179080, “In Vivo and In Vitro Characterization of Close Analogs of Compound KA-11, a New Antiseizure Drug Candidate” (International Journal of Molecular Sciences, 2023).
# Where two headings read alike, the source gives them in different places.
# How the values were obtained:
# [1] = test system: neuromuscular strength in mice; experiment: Grip strength test; format: in vivo; settings: 50 mg/kg i.p., 30 min before test
# Protocol: The experiments were conducted on adult male albino Swiss mice weighing 22–26 g. The animals were kept in colony cages under standardized laboratory conditions: natural light–dark cycle 12/12 h, temperature 20–24 °C, air humidity 45–65% and free access to tap water and food (chow pellets). After 7 days of adaptation to laboratory conditions, the animals were randomly assigned to experimental groups consisting of 8 mice. The experimental procedures described herein were approved by the Local Ethics Committee in Lublin, Poland (approval numbers: 71/2020 and 13/2021), and were conducted in accordance with EU Directive 2010/63/EU for animal experiments. All efforts were made to minimize animal suffering and to use only the number of animals necessary to produce reliable scientific data according to the 3Rs rule. The grip strength test was carried out according to the methodology described by Socała et al.. Neuromuscular strength was measured just before the ivPTZ seizure threshold test to limit the number of animals used. The ED50 or TD50 values for tested substances in the acute animal models of seizures were calculated using the computer log-probit analysis. Subsequently, the ED50 and TD50 values (±SEM) were statistically analyzed using one-way analysis of variance (ANOVA) followed by the post hoc Dunnett’s test for multiple comparisons. Differences among values were considered statistically significant if p < 0.05. GraphPad Prism version 8 for Windows (GraphPad Software, San Diego, CA, USA) was used as a statistical software program. The results obtained from the acute ivPTZ test and grip strength test were evaluated by a Student’s t test. Fisher’s exact probability test was used to analyze protection from tonic forelimb and hindlimb extension in the ivPTZ test. Figure 8 Effects of KA-228 and KA-232 on neuromuscular strength in mice. KA-228 and KA-232 were administered i.p., 30 min before the test. Control animals received vehicle. […] The statistical significance was evaluated using the Student’s t test: * p < 0.05 vs. the vehicle-treated group (GraphPad Prism 8).
# Na^+ channel (site 2) = experiment: Radioligand binding, Na+ channel (site 2); parameters: species or system rat
# Protocol: (§1) Dysfunction of both sodium and calcium ion channels is known to be one of the crucial reasons behind the pathogenesis of seizures. Consequently, these ion channels are molecular targets for several clinically important ASDs such as lacosamide, lamotrigine, carbamazepine, oxcarbazepine and compounds currently under preclinical and clinical studies. Thus, for KA-228 and KA-232, we tested herein their binding profile toward the aforementioned ion channels at concentrations of 10 and 100 µM (Table 3). […] Apart from in vitro studies focused on explaining the mechanism of action, KA-232 was additionally tested for its interaction with the potassium channel (hERG) which is recognized as one of the most important ‘off-targets’ responsible for harmful arrhythmogenic activity. Thus, the interaction of potential drug candidates with hERG must be excluded at an early stage of development.
# (§2) Binding studies were carried out commercially in Eurofins Laboratories (Poitiers, France or New Taipei City, Taiwan).
# [2] = test system: Calcium Cav1.2 channels (dihydropyridine site, antagonist radioligand); experiment: Radioligand binding, Cav1.2 dihydropyridine site; parameters: species or system rat; settings: 10 µM
# Protocol: as §1, §2
# Chimney test = settings: male, albino Swiss, mouse, in vivo, ip, mice
# Protocol: (§3) The experiments were conducted on adult male albino Swiss mice weighing 22–26 g. The animals were kept in colony cages under standardized laboratory conditions: natural light–dark cycle 12/12 h, temperature 20–24 °C, air humidity 45–65% and free access to tap water and food (chow pellets). After 7 days of adaptation to laboratory conditions, the animals were randomly assigned to experimental groups consisting of 8 mice. The experimental procedures described herein were approved by the Local Ethics Committee in Lublin, Poland (approval numbers: 71/2020 and 13/2021), and were conducted in accordance with EU Directive 2010/63/EU for animal experiments. All efforts were made to minimize animal suffering and to use only the number of animals necessary to produce reliable scientific data according to the 3Rs rule.
# The chimney test of Boissier et al. was used to quantify the acute adverse-effect potential of KA-228 and KA-232 on motor performance in mice. […]
# The ED50 or TD50 values for tested substances in the acute animal models of seizures were calculated using the computer log-probit analysis. Subsequently, the ED50 and TD50 values (±SEM) were statistically analyzed using one-way analysis of variance (ANOVA) followed by the post hoc Dunnett’s test for multiple comparisons. […] The results obtained from the acute ivPTZ test and grip strength test were evaluated by a Student’s t test. […]
# [3] = test system: tonic–clonic seizures in mice; experiment: Maximal electroshock seizure (MES) test; format: in vivo
# Protocol: as §3
# (§4) All substances (except PTZ and tetracaine hydrochloride dissolved in water for injections) were suspended in a 1% solution of Tween 80 (Sigma-Aldrich, Saint Louis, MO, USA) in water for injections (Baxter, Warszawa, Poland) or 0.9% NaCl. All drugs were injected intraperitoneally (i.p.) 30 min before all seizure models with 1 mL syringes as a single injection, in a volume of 10 mL/kg. The pretreatment time (30 min) before testing for KA-228 and KA-232 was chosen based on the time to peak of maximum anticonvulsant activity of KA-11 from our previous studies.
# The tonic–clonic seizures in mice were evoked by an electric stimulus (an alternating current 25 mA, 50 Hz, maximum output voltage 500 V, 0.2 s) generated by a rodent shocker (Hugo Sachs Elektronik, Freiburg, Germany) and delivered via ear-clip electrodes. […] This experimental procedure has been described in detail in our previous studies.
# (§5) The ED50 or TD50 values for tested substances in the acute animal models of seizures were calculated using the computer log-probit analysis. Subsequently, the ED50 and TD50 values (±SEM) were statistically analyzed using one-way analysis of variance (ANOVA) followed by the post hoc Dunnett’s test for multiple comparisons. Differences among values were considered statistically significant if p < 0.05. GraphPad Prism version 8 for Windows (GraphPad Software, San Diego, CA, USA) was used as a statistical software program. The results obtained from the acute ivPTZ test and grip strength test were evaluated by a Student’s t test. Fisher’s exact probability test was used to analyze protection from tonic forelimb and hindlimb extension in the ivPTZ test.
# [4] = test system: seizure susceptibility in mice; experiment: Timed ivPTZ seizure threshold test; format: in vivo; settings: 50 mg/kg i.p., 30 min before ivPTZ
# Protocol: as §3
# The timed ivPTZ seizure threshold test was carried out according to the method described by Socała et al.. KA-228 and KA-232 were suspended in a 1% solution of Tween 80 and administered i.p. 30 min before the test. In the experiment with KA-232, two separate control groups were used because the effects of KA-232 at a dose of 50 and 100 mg/kg were determined on different days.
# as §5
# Figure 7 Effects of KA-11, KA-228 and KA-232 on the threshold for the first myoclonic twitch (A), generalized clonus (B) and forelimb tonus (C) in the ivPTZ test in mice. KA-228 and KA-232 were administered i.p., 30 min before seizure induction. Control animals received vehicle. Data are presented as means ± SD (mg/kg PTZ; n = 9–14 animals; the n value varies between groups because some animals were excluded from the study due to unsuccessful catheterization of the vein). The statistical significance for KA-228 and KA-232 was evaluated by a Student’s t test. Data for KA-11 were used from Socała et al. and re-analyzed using one-way ANOVA followed by Dunnett’s post hoc test. * p < 0.05, ** p < 0.01, *** p < 0.001, **** p < 0.0001 vs. the vehicle-treated group (GraphPad Prism 8).
# [5] = test system: 6-Hz-induced psychomotor seizures in mice; experiment: 6 Hz (32 mA) seizure model; format: in vivo
# Protocol: as §3, §4
# The 6-Hz-induced psychomotor seizures in mice were evoked by current (6 Hz, 0.2 ms rectangular pulse width, 32 mA, 3 s duration) generated by an S48 Square Pulse Stimulator and CCU1 Constant Current Unit (Grass Technologies, West Warwick, RI, USA). The animals were administered with increasing doses of KA-228 and KA-232, and the anticonvulsant activity of each drug was evaluated as the ED50. This experimental procedure has been described in detail in our previous studies.
# as §5
# [6] = test system: PTZ-induced clonic seizures in mice; experiment: scPTZ-induced convulsions; format: in vivo; settings: i.p.
# Protocol: as §3, §4
# The PTZ-induced clonic seizures in mice were determined after sc administration of PTZ at a dose of 100 mg/kg. The animals were administered with increasing doses of KA-228 and KA-232, and the anticonvulsant activity of each drug was evaluated as the ED50 value. This experimental procedure has been described in detail in our previous studies.
# as §5
# [7] = test system: tonic–clonic seizures in mice; settings: i.p.; cited from earlier work
# [8] = test system: PTZ-induced clonic seizures in mice; settings: i.p.; cited from earlier work
# [9] = test system: 6-Hz-induced psychomotor seizures in mice; settings: i.p.; cited from earlier work
# hepatoma HepG2 = experiment: Hepatotoxicity, HepG2 cell viability; format: cell-based, human; settings: 100× lower concentration than 100 µM
# From the text: The assays and protocols used for evaluating the KA-232 ADME-Tox parameters were similar to those described previously for compound KA-11 [6].
# Figure 9 The effect of KA-232 and the reference drug ketoconazole (KE) on CYP3A4 activity (A). The effect of KA-232 and the reference drug quinidine (QD) on CYP2D6 activity (B). The effect of KA-232 and the reference cytostatic drug doxorubicin (DX) on the HepG2 cell line (C) and the SH-SY5Y cell line (D) viability. Statistical significance (* p < 0.05, **** p < 0.0001) was analyzed by Graph Pad Prism 8 software using one-way ANOVA and Bonferroni’s Multiple Comparison Post Test.
smiles,measurement,setting,value
"CC(C(=O)N1CCN(c2cccc(C(F)(F)F)c2)CC1)N1CCCC1=O (centres unmarked) [KA-228, 1-(1-oxo-1-(4-(3-(trifluoromethyl)phenyl)piperazin-1-yl)propan-2-yl)pyrrolidin-2-one]",effect on neuromuscular strength (grip strength),[1],did not produce any significant effects
same,% Inhibition of Control Specific Binding,Na^+ channel (site 2); 10 µM,−2.9%
same,% Inhibition of Control Specific Binding,Na^+ channel (site 2); 100 µM,15.5%
same,% Inhibition of Control Specific Binding,[2],8.7%
same,melting point,,87.1 to 88.4 °C
same,TD50 at 30 min,Chimney test,131 ± 36.2 mg/kg
same,ED50,"[3]; Mus musculus, ip, 30 min before test, read-out: ED50 MES ± SD",92.5 ± 16 mg/kg
same,"TI (TD50/ED50), MES",[3]; i.p.,1.42
same,effect on threshold for forelimb tonus,[4],significantly raised
same,effect on threshold for generalized clonus,[4],did not cause any significant changes
same,effect on threshold for the first myoclonic twitch,[4],did not cause any significant changes
same,ED50,"[5]; Mus musculus, ip, 30 min before test, read-out: ED50 6 Hz ± SD",61.8 mg/kg
same,"TI (TD50/ED50), 6 Hz",[5]; i.p.,1.72
same,ED50 6 Hz ± SD,"[5]; i.p., 30 min before test",76.4 ± 40.76 mg/kg
same,ED50,"[6]; Mus musculus, scPTZ 100 mg/kg, 30 min before test, read-out: ED50 PTZ ± SD",95.4 ± 39.8 mg/kg
same,"TI (TD50/ED50), PTZ",[6]; scPTZ,1.38
"CCCC(CCC)C(=O)O [VPA, valproic acid, reference compound]",ED50 MES ± SD,[7],355.2 ± 108.1 mg/kg
same,"TI (TD50/ED50), MES",[7],1.21
same,ED50 PTZ ± SD,[8],176.2 ± 81.8 mg/kg
same,"TI (TD50/ED50), PTZ",[8],2.44
same,ED50 6 Hz ± SD,[9],110.5 ± 42.8 mg/kg
same,"TI (TD50/ED50), 6 Hz",[9],3.90
"COc1cccc2c1C(=O)c1c(O)c3c(c(O)c1C2=O)C[C@@](O)(C(=O)CO)C[C@@H]3O[C@H]1C[C@H](N)[C@H](O)[C@H](C)O1 [doxorubicin, reference compound]",HepG2 cell viability,hepatoma HepG2,21 % of control
